Like-named read-outs stand apart in the source and are kept apart here.
Assays:
[1] = tested on: P. falciparum Dd2 (PfLuc) line expressing firefly luciferase, asexual blood stage; assay: microbe, parasite or virus in culture; type: cell-based, Plasmodium falciparum; details: Plasmodium falciparum
P. falciparum Dd2 = assay: SYBR green I asexual blood stage proliferation assay (96 h); type: cell-based, Plasmodium falciparum; details: for IC50 / Emax: Plasmodium falciparum
[2] = DD2, read-out: CDD P. falciparum Luciferase ABS 11-pt Reconfirmation Dose Response (48hr): IC50 (μM), 11-pt dose response, 48hr
[3] = DD2, 8-pt dose response, 96hr, read-out: CDD P. falciparum Luciferase ABS 8-pt Reconfirmation Dose Response (96hr): IC50
[4] = DD2, 8-pt dose response, 96hr, read-out: CDD P. falciparum Luciferase ABS 8-pt Reconfirmation Dose Response (96hr): Maximum inhibition (%)
[5] = DD2, 11-pt dose response, 48hr, read-out: CDD P. falciparum Luciferase ABS 11-pt Reconfirmation Dose Response (48hr): Maximum inhibition (%)
[6] = DD2, 11-pt dose response, 96hr, read-out: CDD P. falciparum Luciferase ABS 11-pt Reconfirmation Dose Response (96hr): IC50
[7] = DD2, 11-pt dose response, 96hr, read-out: CDD P. falciparum Luciferase ABS 11-pt Reconfirmation Dose Response (96hr): Maximum inhibition (%)
[8] = DD2, Sybr Green I, 11-pt dose response, 96hr, read-out: CDD P. falciparum Sybr Green I ABS 11-pt Reconfirmation Dose Response (96hr): IC50
[9] = DD2, Sybr Green I, 11-pt dose response, 96hr, read-out: CDD P. falciparum Sybr Green I ABS 11-pt Reconfirmation Dose Response (96hr): Maximum inhibition (%)
[10] = DD2, read-out: P. falciparum Luciferase ABS 11-pt Reconfirmation Dose Response (48hr): IC50, 11-pt dose response, 48hr
[11] = DD2, 8-pt dose response, 96hr, read-out: P. falciparum Luciferase ABS 8-pt Reconfirmation Dose Response (96hr): IC50
[12] = DD2, 11-pt dose response, 48hr, read-out: P. falciparum Luciferase ABS 11-pt Reconfirmation Dose Response (48hr): Maximum inhibition (%)
[13] = DD2, 11-pt dose response, 96hr, read-out: P. falciparum Luciferase ABS 11-pt Reconfirmation Dose Response (96hr): IC50
[14] = DD2, 11-pt dose response, 96hr, read-out: P. falciparum Luciferase ABS 11-pt Reconfirmation Dose Response (96hr): Maximum inhibition (%)
[15] = DD2, 11-pt dose response, 96hr, read-out: P. falciparum Sybr Green I ABS 11-pt Reconfirmation Dose Response (96hr): IC50
[16] = DD2, 11-pt dose response, 96hr, read-out: P. falciparum Sybr Green I ABS 11-pt Reconfirmation Dose Response (96hr): Maximum inhibition (%)
[17] = DD2, 8-pt dose response, 96hr, read-out: P. falciparum Luciferase ABS 8-pt Reconfirmation Dose Response (96hr): Maximum inhibition (%)

Structure (SMILES) | IC50 [1, 2] [µM] | IC50 [1, 3] [µM] | Emax [1, 4] [%] | Emax [1, 5] [%] | IC50 [1, 6] [µM] | Emax [1, 7] [%] | IC50 (P. falciparum Dd2; [8]) [µM] | Emax (P. falciparum Dd2; [9]) [%] | other results
Oc1ccc(Cl)cc1CNCc1cccc(C(F)(F)F)c1 [DDD01038245] | > 4.16 | 0.82 | 91.9 | 64 | 10.6 | 79.2 | 3.03 | 95.3 | 
Cc1ccccc1CNCc1cc(Cl)ccc1O [DDD01038246] | 11 | 0.64 | 92.4 | 69.3 | 5.6 | 89.5 | 2.6 | 97.5 | 
COc1cccc(CNCc2ccccc2Cl)c1O [DDD01038247] | 7.91 | 0.9 | 89.5 | 79.1 | 1.97 | 96.2 | 5.22 | 87.5 | 
COc1cccc(CNCc2cccc(Cl)c2)c1O [DDD01038248] | 4.63 | 0.99 | 92.4 | 87.8 | 1.9 | 98 | 2.69 | 92.1 | 
COc1cccc(CNCc2ccc(F)cc2Cl)c1O [DDD01038249] | > 4.16 | 0.94 | 87.2 | 36 | 2.78 | 95.4 | > 4.16 | 92.8 | 
COc1cccc(CNCc2ccc(F)c(Cl)c2)c1O [DDD01038250] | 3.18 | 0.56 | 93.8 | 93.8 | 1.4 | 99.2 | 1.97 | 98.2 | 
Cc1cccc(NC(=O)c2cccc(OCc3nnnn3C)c2)n1 [DDD01038630] | 0.916 | 0.34 | 94.9 | 99.2 | > 0.462 | 99.5 | 2.54 | 99.2 | 
CN[C@@H]1CCC[C@@H](Oc2ccccc2Oc2ccc(C)cc2)[C@@H]1O [DDD01056673] | 1.83 | 0.52 | 96 | 97 | 0.625 | 99.7 | 2.33 | 99.2 | 
c1cnc(N2CCC(c3csc(Nc4cnccn4)n3)CC2)nc1 [DDD01056714, C1CN(CCC1c1csc(Nc2cnccn2)n1)c1ncccn1] |  |  |  |  |  |  |  |  | IC50 ([1]; DD2, read-out: CDD P. falciparum Luc 11pt dose response (96hr, n=2): IC50 (μM), 96hr, 11-point, n=2): 0.0286 µM; IC50 ([1]; DD2, read-out: CDD P. falciparum Luciferase 11pt dose response (48hr, n=2): IC50 (μM), 48hr, 11-point, n=2): 0.0592 µM; Emax ([1]; DD2, 48hr, 11-point, read-out: CDD P. falciparum Luciferase ABS 11-pt Reconfirmation Dose Response (48hr): Maximum inhibition (%)): 82.6%; Emax ([1]; DD2, 96hr, 11-point, read-out: CDD P. falciparum Luciferase ABS 11-pt Reconfirmation Dose Response (96hr): Maximum inhibition (%)): 94.8%; CDD P. falciparum Sybr Green I ABS Dd2 Dose Response: Maximum measured (%) (P. falciparum Dd2; Dd2, 96 h): 55.9%; IC50 (P. falciparum Dd2; DD2, 96 h, read-out: CDD P. falciparum Sybr Green I ABS Dd2 Dose Response: IC50): > 4.16 µM
CCC(C)(C)n1nnnc1C(c1cccs1)N1CCc2ccccc2C1 (stereo not shown) [DDD01056726] | 3.18 | 0.56 | 91.1 | 71.7 | 0.803 | 93.7 | 4.96 | 79.3 | 
Cc1cccc(C)c1Nc1noc2c1CN(C(=O)c1ccnn1C)CC2 [DDD01056796] | 0.425 | 0.14 | 96.7 | 98.3 | 0.328 | 101 | 0.266 | 96.3 | 
Cc1cccc(C)c1Nc1noc2c1CN(C(=O)c1cn(C)cn1)CC2 [DDD01056797] | 0.494 | 0.23 | 95.7 | 99.4 | 0.535 | 101 | 0.22 | 97.2 | 
Cc1cccc(C)c1Nc1noc2c1CN(C(=O)c1c[nH]nc1C)CC2 [DDD01056871] | 1.9 | 0.77 |  | 87.7 | 1.38 | 96.9 | 2.52 |  | 
Cc1ccc(CN(CCN(C)C)Cc2c(C)nc3sccn23)o1 [DDD01056924] |  |  |  |  |  |  |  |  | IC50 [1, 10]: > 12.5 µM; IC50 [1, 11]: 1.82 µM; Emax [1, 12]: 65.3%; IC50 [1, 13]: 2.43 µM; Emax [1, 14]: 88.8%; IC50 (P. falciparum Dd2; [15]): > 4.16 µM; Emax (P. falciparum Dd2; [16]): 52.1%
Cc1cccc(C)c1Nc1noc2c1CN(C(=O)c1ccn(C)n1)CC2 [DDD01057030] | 0.885 | 0.26 | 96.3 | 97.1 | 0.693 | 99.6 | 0.913 | 95.5 | 
CCCNc1cc(-c2c[nH]nc2C2CCN(C(=O)C3CCC3)C2)ccn1 (stereo not shown) [DDD01057089] | 4.01 | 0.31 | 96.1 | 86.1 | 1.63 | 97.9 | 1.34 | 61.5 | 
NC1CCc2nc(-c3cccnc3)nc(Nc3ccc(F)cc3)c2C1 (stereo not shown) [DDD01057099] | 3.56 | 0.24 | 96.1 | 98.4 | 0.99 | 100 | 1.31 | 100 | 
Fc1ccccc1Cn1c(C2CCNCC2)cc2cccnc21 [DDD01057236] | 3.02 | 0.41 | 92.4 | 64.7 | 1.41 |  | 7.03 | 70.6 | 
COc1ccccc1C1(NCc2c(C)nc3c(C)cccn23)CCCC1 [DDD01057239] | 4.35 | 0.71 |  | 60.6 | 1.55 | 92 | > 1.39 | 68.9 | 
CC(C)Nc1cc(-c2c[nH]nc2C2CCN(C(=O)C3CC3)C2)ccn1 (stereo not shown) [DDD01057305] | 5.35 | 0.29 | 95.7 |  | 1.73 | 98.4 | 8.07 | 76.9 | 
CC(C)CNc1cc(-c2c[nH]nc2C2CCN(C(=O)C3CC3)C2)ccn1 (stereo not shown) [DDD01057306] | 5.71 | 0.28 | 95.6 |  | 1.93 | 96.6 | 5.02 | 50.9 | 
CC(C)Nc1cc(-c2c[nH]nc2C2CCN(C(=O)C3CCC3)C2)ccn1 (stereo not shown) [DDD01057307] | 4.05 | 0.23 | 94.3 |  | 1.42 | 95.8 | 7.49 | 72 | 
COc1cc(C(=O)NCC2(N(C)C)CCN(C)CC2)c2ccccc2n1 [DDD01057375] |  |  |  |  |  |  |  |  | IC50 [1, 10]: > 12.5 µM; IC50 [1, 11]: < 0.00232 µM; Emax [1, 17]: 88.6%; Emax [1, 12]: 53%; Emax [1, 14]: 87.3%; IC50 ([1]; 96 h incubation, Dd2 luciferase, read-out: 96 hour Pfluc IC50): 0.00714 µM; IC50 (P. falciparum Dd2; [15]): > 1.39 µM; Emax (P. falciparum Dd2; [16]): 63.6%
Fc1cccc(F)c1Cn1c(C2CCNCC2)cc2cccnc21 [DDD01057378] | 1.51 | 0.36 | 91.4 | 76 | 0.733 | 92.1 | 0.57 | 68.3 | 
Nc1cc(-c2c[nH]nc2C2CCCN2CCCc2ccccc2)ccn1 (stereo not shown) [DDD01057437] | 3.06 | 0.59 | 96.2 | 63 | 0.669 | 100 | 2.26 | 96.1 | 
Cc1nc(-c2ccc(F)c(F)c2)cc(C2CCNCC2)n1 [DDD01058356] | > 12.5 | 0.84 | 88.2 | 44.3 | 2.02 | 86.7 | 2.1 | 68.9 | 
OC1(c2ccc(F)cc2)CCN(Cc2ccccc2N2CCCC2)CC1 [DDD01058479] |  |  |  |  |  |  |  |  | IC50 [1, 10]: 3.24 µM; IC50 [1, 11]: 1.38 µM; Emax [1, 17]: 88.9%; Emax [1, 12]: 76.5%; IC50 [1, 13]: 1.95 µM; Emax [1, 14]: 94.3%; IC50 (P. falciparum Dd2; [15]): 5.91 µM; Emax (P. falciparum Dd2; [16]): 82.4%
Clc1cccc(C[C@@H]2NCCC[C@@H]2Nc2ccccc2)c1 [DDD01058682] |  |  |  |  |  |  |  |  | IC50 [1, 10]: 1.83 µM; IC50 [1, 11]: 1.21 µM; Emax [1, 17]: 94.7%; Emax [1, 12]: 99.1%; IC50 [1, 13]: 0.857 µM; Emax [1, 14]: 101%; IC50 (P. falciparum Dd2; [15]): 3.39 µM; Emax (P. falciparum Dd2; [16]): 93.6%
